Measurements: patent publication US11141464B2, “GLP-1 polypeptide having GLP-1 receptor agonist activity and use thereof” (Liu Jianning, priority 2018, dated 2021)
Where no end group is shown, it is not given here.

Assays:
[1] = biological target: dipeptidyl peptidase IV (DPP-IV) (Homo sapiens, UniProt P27487); settings: variants with the 8-position alanine replaced, compared with GLP-1 or its fragment; cited from earlier work
[2] = tested on: patients with type 2 diabetes; settings: after 6 weeks of GLP-1 treatment; cited from earlier work
STZ rats = test: Efficacy study by subcutaneous administration in the experimental animal model of type 2 diabetes (STZ rats), blood glucose; assay type: in vivo, Male Wistar rats; settings: for Blood glucose concentration at 0 hour (mM, mean ± sem): 0 hour (start of experiment, time of injection)
Experimental: 1) The Experimental Animal Model of Type 2 Diabetes Male Wistar rats of approximately 200 grams were fasted overnight with free access to water. The rats were administered a single dose of streptozotocin (STZ) by intraperitoneal injection (ip) in an amount of 45 mg/Kg. Then, the rats were normally fed and tested for fasting blood glucose. […] 2) Experimental Method Forty-eight rats were randomly divided into 6 groups, with each of 8 rats. […] At 0 hour, the STZ rats were injected subcutaneously with different doses of drugs for test. At 3, 6, and 9 hours, blood samples were taken from the vein of the rats' tail. The blood samples were tested to provide the blood glucose concentrations of the rats.

Sequence of dipeptidyl peptidase IV (DPP-IV) (P27487 whole entry, species assumed, the tested form may be a part): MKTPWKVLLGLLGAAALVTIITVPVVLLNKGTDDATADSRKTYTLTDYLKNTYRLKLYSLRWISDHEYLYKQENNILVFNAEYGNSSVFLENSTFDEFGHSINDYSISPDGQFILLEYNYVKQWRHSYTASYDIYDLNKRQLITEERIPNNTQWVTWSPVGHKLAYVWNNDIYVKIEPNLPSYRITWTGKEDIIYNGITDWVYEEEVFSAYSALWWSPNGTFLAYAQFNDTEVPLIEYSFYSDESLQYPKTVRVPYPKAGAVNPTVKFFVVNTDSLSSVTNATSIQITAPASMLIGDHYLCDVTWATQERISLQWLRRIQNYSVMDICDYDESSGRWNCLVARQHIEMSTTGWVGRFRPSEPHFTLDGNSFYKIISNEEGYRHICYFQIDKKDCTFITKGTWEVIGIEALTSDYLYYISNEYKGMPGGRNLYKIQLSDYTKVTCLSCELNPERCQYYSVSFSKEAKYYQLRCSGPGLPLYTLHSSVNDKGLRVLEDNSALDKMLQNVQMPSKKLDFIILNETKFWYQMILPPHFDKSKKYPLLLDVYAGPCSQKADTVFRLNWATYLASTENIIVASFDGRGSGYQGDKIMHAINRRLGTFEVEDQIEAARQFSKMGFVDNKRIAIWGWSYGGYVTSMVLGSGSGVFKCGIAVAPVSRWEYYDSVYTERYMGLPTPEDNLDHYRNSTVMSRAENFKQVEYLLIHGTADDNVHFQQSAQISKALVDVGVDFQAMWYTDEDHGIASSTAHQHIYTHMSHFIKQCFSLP

Which “resistance to DPP-IV mediated degradation” value (“resistance” below) [1] does the source give for “Ser^8-GLP-1 (HDEFERHSEGTFTSDVSSYLEGQAAKEFIAWLVKGRG; Glucagon-like peptide 1; UniProt P01275 92-128, looked up, variant A8S) [variant obtained by replacing the 8-position alanine of GLP-1 or a fragment thereof with serine]” here?
The value was “increased resistance”.

Which average weight loss [2] does the source give for “^1HDEFERHAEGTFTSDVSSYLEGQAAKEFIAWLVKGRG [GLP-1, Glucagon-like peptide-1, a polypeptide containing 37 amino acids]” here?
The average weight loss was 1.9 kg.

For “Thr^8-GLP-1 (HDEFERHTEGTFTSDVSSYLEGQAAKEFIAWLVKGRG; Glucagon-like peptide 1; UniProt P01275 92-128, looked up, variant A8T) [variant obtained by replacing the 8-position alanine of GLP-1 or a fragment thereof with threonine]”, which “resistance” value [1] is on record?
Its value is “increased resistance”.

With “Gly^8-GLP-1 (HDEFERHGEGTFTSDVSSYLEGQAAKEFIAWLVKGRG; Glucagon-like peptide 1; UniProt P01275 92-128, looked up, variant A8G) [variant obtained by replacing the 8-position alanine of GLP-1 or a fragment thereof with glycine]” as the substance, how does the “resistance” value [1] read?
The value was “increased resistance”.

Which “Blood glucose concentration at 0 hour (mM, mean ± sem)” value (STZ rats; 1 μg/kg subcutaneous) does the source give for “His-Gly-Glu-Gly-Thr-Phe-Pro-Ser-Asp-Val-Ser-Ser-Tyr-Leu-Glu-Gly-Gln-Ala-Ala-Lys-Glu-Phe-Ile-Ala-Trp-Leu-Val-Lys-Gly-Arg-NH2 (HGEGTFPSDVSSYLEGQAAKEFIAWLVKGR-NH2) [Gly^8-Pro^13-GLP-1(7-36)NH2, GLP-1 polypeptide with T13P mutation]” here?
Its value is 27.4 ± 0.8 mM.

What about the “Blood glucose concentration at 3 hour (mM, mean ± sem)” value (STZ rats; 1 μg/kg subcutaneous) of the same substance?
Its value is 23.4 ± 1.1 mM.

And the “Blood glucose concentration at 6 hour (mM, mean ± sem)” value (STZ rats; 1 μg/kg subcutaneous)?
Its value is 19.5 ± 0.5 mM.

What about the “Blood glucose concentration at 9 hour (mM, mean ± sem)” value (STZ rats; 1 μg/kg subcutaneous) of the same substance?
Its value is 16.3 ± 0.7 mM.

What about the “Blood glucose concentration at 0 hour (mM, mean ± sem)” value (STZ rats; 10 μg/kg subcutaneous) of the same substance?
Its value is 24.0 ± 1.1 mM.

What about the “Blood glucose concentration at 3 hour (mM, mean ± sem)” value (STZ rats; 10 μg/kg subcutaneous) of the same substance?
The value was 18.5 ± 0.9 mM.

And the “Blood glucose concentration at 6 hour (mM, mean ± sem)” value (STZ rats; 10 μg/kg subcutaneous)?
The value was 14.5 ± 0.8 mM.

And the “Blood glucose concentration at 9 hour (mM, mean ± sem)” value (STZ rats; 10 μg/kg subcutaneous)?
The value was 10.5 ± 0.6 mM.

What about the “blood-glucose lowering effect compared with reference drugs” value (STZ rats; subcutaneous, comparison from the data of Table 1 (vs Liraglutide P<0.01)) of the same substance?
Its value is “significantly better than that of Liraglutide”.
